Consider nine molecules from ChEMBL document CHEMBL1201862, “PubChem BioAssay data set” (2004).

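Method: 48-hour compound exposure of cells in 96-well plates, five concentrations, linear interpolation of endpoints. GI50: concentration for 50% inhibition of growth.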 The source made the active and inactive calls. Cut-off read from the data, not from the text of the source: active = GI50 up to about 1.1 µM and inactive = higher.

Among the test systems are EKVX; NCI-H522; HCC 2998; OVCAR-8; HCT-15; OVCAR-3; SW-620; RPMI-8226; SF-268; ACHN; IGROV-1; UO-31; MDA-MB-435; U-251; RXF 393; SK-MEL-5; OVCAR-5; A549; MCF7; SK-MEL-28.
Common to all, as to test: NCI anticancer screen, dose series, 48 h

Turning to `COc1ccc2nccc(/C=C/c3ccc(N(C)C)cc3)c2c1`, the GI50 in the test on EKVX is > 10 µM (inactive); in the test with NCI-H522, > 10 µM (inactive); in the test on HCC 2998, > 10 µM (inactive); in the test with OVCAR-8 it was > 10 µM (inactive); in the test with HCT-15, above 10 µM; with OVCAR-3, > 10 µM (inactive). For the same molecule, the GI50 in the test on SW-620, in the test on RPMI-8226, with SF-268, in the test on ACHN, in the test with IGROV-1 and in the test on UO-31 was > 10 µM (inactive) throughout. Also, the GI50 with MDA-MB-435 was 2.31 µM (inactive); with U-251, > 10 µM (inactive); in the test with RXF 393, > 10 µM (inactive); with SK-MEL-5, > 10 µM (inactive); with OVCAR-5 it was > 10 µM (inactive); in the test on A549, > 10 µM (inactive). Further, the GI50 in the test on MCF7 and in the test with SK-MEL-28 was > 10 µM (inactive) throughout.
On to `CN(/N=C\c1ccc2ccccc2c1)C1=NCCCCN1`, for which the GI50 in the test with EKVX is 19.7 µM (inactive); in the test with NCI-H522, 16.7 µM (inactive); with HCC 2998, 14.5 µM (inactive); in the test with OVCAR-8, 29.8 µM (inactive); in the test with HCT-15, 30.6 µM; in the test on OVCAR-3 it was 36.5 µM (inactive). Besides, the GI50 in the test on SW-620 was 17.9 µM (inactive); in the test with RPMI-8226, 19.8 µM (inactive); with SF-268 it was 34.4 µM (inactive); in the test on ACHN, 33.7 µM (inactive); with IGROV-1, 26.5 µM (inactive); in the test with UO-31, 13.8 µM (inactive). For the same molecule, the GI50 in the test on MDA-MB-435 is 18.2 µM (inactive); in the test with U-251 it was 18 µM (inactive); in the test on RXF 393 it was 12.5 µM (inactive); in the test on SK-MEL-5, 13.8 µM (inactive); with OVCAR-5, 36.5 µM (inactive); in the test on A549, 18.8 µM (inactive). Moreover, the GI50 was 18.2 µM (inactive) in the test with MCF7 and 15.2 µM (inactive) in the test with SK-MEL-28.
As to `O=C(CC(C(=O)c1cccs1)c1ccsc1)c1ccccc1` (stereo not given), the GI50 was > 100 µM (inactive) in the test with EKVX; 61.7 µM (inactive) in the test with NCI-H522; > 100 µM (inactive) in the test with HCC 2998; > 100 µM (inactive) with OVCAR-8; 48.1 µM in the test on HCT-15; > 100 µM (inactive) in the test on OVCAR-3. Also, the GI50 was > 100 µM (inactive) with SW-620; 48.8 µM (inactive) in the test with RPMI-8226; > 100 µM (inactive) with SF-268; 69.5 µM (inactive) in the test with ACHN; > 100 µM (inactive) in the test on IGROV-1; 37.8 µM (inactive) with UO-31. The GI50 is 31.4 µM (inactive) in the test on MDA-MB-435; > 100 µM (inactive) in the test on U-251; 61 µM (inactive) with RXF 393; 76.9 µM (inactive) with SK-MEL-5; > 100 µM (inactive) in the test on OVCAR-5; 21.5 µM (inactive) with A549. Also, the GI50 with MCF7 was 30.7 µM (inactive); in the test with SK-MEL-28, > 100 µM (inactive).
Consider `CC1=C(C)C1[N+](=O)[O-]`, for which the GI50 was > 100 µM (inactive) in the test on EKVX; > 100 µM (inactive) with NCI-H522; > 100 µM (inactive) with HCC 2998; > 100 µM (inactive) in the test on OVCAR-8; above 100 µM in the test on HCT-15; > 100 µM (inactive) in the test on OVCAR-3. For the same molecule, the GI50 in the test with SW-620, in the test on RPMI-8226, in the test with SF-268, in the test on ACHN, with IGROV-1 and with UO-31 was > 100 µM (inactive) each time. Also, the GI50 with MDA-MB-435, in the test on U-251, in the test on RXF 393, in the test with SK-MEL-5, in the test on OVCAR-5 and in the test with A549 was > 100 µM (inactive) throughout. The GI50 with MCF7 and in the test on SK-MEL-28 was > 100 µM (inactive) throughout.
On to `O=C1/C(=C\c2ccc(Cl)cc2Cl)Sc2scc(-c3cccc([N+](=O)[O-])c3)[n+]21`, for which the GI50 is 7.57 µM (inactive) in the test on EKVX; 1.43 µM (inactive) with NCI-H522; 7.64 µM (inactive) in the test with HCC 2998; 8.15 µM (inactive) in the test on OVCAR-8; 1.81 µM with HCT-15; 8.13 µM (inactive) with OVCAR-3. Moreover, the GI50 with SW-620 was 3.62 µM (inactive); in the test on RPMI-8226, 4.48 µM (inactive); in the test on SF-268, 9.1 µM (inactive); in the test with ACHN, 3.33 µM (inactive); in the test with IGROV-1, 6.31 µM (inactive); in the test with UO-31, 3.47 µM (inactive). Further, the GI50 in the test on MDA-MB-435 was 10 µM (inactive); with U-251, 13.9 µM (inactive); in the test with RXF 393, 6.25 µM (inactive); with SK-MEL-5 it was 2.09 µM (inactive); with OVCAR-5, 15.5 µM (inactive); in the test with A549 it was 18.1 µM (inactive). Also, the GI50 with MCF7 is 3.98 µM (inactive); with SK-MEL-28, 14.6 µM (inactive).
Take `CC1(CCCO)CCCCCCCCCC(C)(CCCO)C1=O` (stereo not given): the GI50 is > 100 µM (inactive) in the test with EKVX; > 100 µM (inactive) in the test with NCI-H522; > 100 µM (inactive) in the test with HCC 2998; > 100 µM (inactive) in the test with OVCAR-8; above 100 µM with HCT-15; > 100 µM (inactive) in the test with OVCAR-3. In addition, the GI50 with SW-620, in the test with RPMI-8226, in the test with SF-268, in the test on ACHN, with IGROV-1 and in the test with UO-31 was > 100 µM (inactive) each time. Further, the GI50 in the test with MDA-MB-435 is > 100 µM (inactive); in the test with U-251 it was > 100 µM (inactive); in the test on RXF 393, > 100 µM (inactive); with SK-MEL-5, > 100 µM (inactive); in the test with OVCAR-5, > 100 µM (inactive); in the test with A549, 87.3 µM (inactive). Besides, the GI50 in the test on MCF7 and with SK-MEL-28 was > 100 µM (inactive) each time.
On to `CC(=O)O[C@H]1C(=O)[C@@]2(C)[C@H]([C@H](OC(=O)c3ccccc3)[C@]3(O)C[C@H](OC(=O)[C@H](O)[C@@H](NC(=O)c4ccccc4)c4ccccc4C)C(C)=C1C3(C)C)[C@]1(OC(C)=O)CO[C@@H]1C[C@@H]2O`, for which the GI50 with EKVX was 7.4 µM (inactive); with NCI-H522 it was 0.556 µM (active); with HCC 2998, 0.782 µM (active); in the test with OVCAR-8, 1.41 µM (inactive); in the test with HCT-15, 6.38 µM; with OVCAR-3 it was 0.324 µM (active). Also, the GI50 in the test with SW-620 is 0.351 µM (active); with RPMI-8226 it was 0.0904 µM (active); in the test with SF-268, 1.2 µM (inactive); in the test on ACHN, 2.44 µM (inactive); in the test with IGROV-1, 0.449 µM (active); in the test with UO-31 it was 6.46 µM (inactive). For the same molecule, the GI50 with MDA-MB-435 was 0.07 µM (active); with U-251, 0.361 µM (active); in the test with RXF 393, 0.525 µM (active); with SK-MEL-5, 0.406 µM (active); in the test with OVCAR-5 it was 0.843 µM (active); with A549, 1.7 µM (inactive). Besides, the results for the GI50 with MCF7 and in the test with SK-MEL-28 were 0.113 µM (active) and 1.55 µM (inactive), respectively.
For `O=c1c(C(c2cc(OCc3ccccc3)cc(OCc3ccccc3)c2)c2c(O)oc3ccccc3c2=O)c(O)oc2ccccc12`, the GI50 in the test on EKVX was 9.04 µM (inactive); with NCI-H522, 8.61 µM (inactive); with HCC 2998 it was 3.91 µM (inactive); in the test with OVCAR-8 it was 4.18 µM (inactive); in the test with HCT-15, 3.17 µM; in the test on OVCAR-3 it was 13.4 µM (inactive). Also, the GI50 with SW-620 was 4.58 µM (inactive); with RPMI-8226, 1.66 µM (inactive); in the test with SF-268 it was 5.07 µM (inactive); in the test with ACHN, 2.92 µM (inactive); with IGROV-1, 14.1 µM (inactive); with UO-31, 4.85 µM (inactive). For the same molecule, the GI50 is 4.83 µM (inactive) with MDA-MB-435; 4.78 µM (inactive) with U-251; 22.4 µM (inactive) in the test on RXF 393; 6.59 µM (inactive) in the test with SK-MEL-5; 11.8 µM (inactive) with OVCAR-5; 7.05 µM (inactive) in the test on A549. Moreover, the GI50 in the test with MCF7 is 12.3 µM (inactive); in the test with SK-MEL-28 it was 12.7 µM (inactive).
As for `O=C1C=C2S[C@H]3C[C@]2(C=C1Br)C1=C(N3)C(=O)c2[nH]cc3c2C1=NCC3` [(+)-DISCORHABDIN B], the GI50 in the test with EKVX is 1.68 µM (inactive); in the test with NCI-H522 it was 0.273 µM (active); with HCC 2998, 2.3 µM (inactive); in the test on OVCAR-8 it was 0.541 µM (active); with HCT-15, 0.745 µM; with OVCAR-3 it was 0.347 µM (active). For the same molecule, the GI50 with SW-620 was 0.0857 µM (active); in the test on RPMI-8226, 0.305 µM (active); with SF-268, 1.54 µM (inactive); in the test on ACHN it was 0.632 µM (active); with IGROV-1, 1.53 µM (inactive); in the test on UO-31 it was 1.57 µM (inactive). In addition, the GI50 is 0.158 µM (active) in the test on MDA-MB-435; 1.75 µM (inactive) with U-251; 0.272 µM (active) with RXF 393; 1.04 µM (active) with SK-MEL-5; 1.85 µM (inactive) in the test on OVCAR-5; 2.47 µM (inactive) with A549. Further, the results for the GI50 in the test with MCF7 and with SK-MEL-28 were 0.52 µM (active) and 1.4 µM (inactive), respectively.
